These results are taken from patent publication US20230162361A1, “ASSESSMENT OF SKIN TOXICITY IN AN IN VITRO TISSUE SAMPLES USING DEEP LEARNING” (Genentech, Inc., priority 2020, published 2023).

Like-named read-outs stand apart in the source and are kept apart here.

Data set [1] relates to reconstructed human epidermis (RHE) samples. The experiment in a line: 3D in vitro reconstructed human epidermis (RHE) model, viable epidermal thickness measured with the machine-learning model after 4-day treatment. An excerpt: A decrease in epidermal thickness of the skin may be a toxicity indication for skin toxicities as well as for cutaneous disease. For example, one can calculate a percentage by dividing the epidermal thickness of the skin after the treatment by a drug compound by the epidermal thickness before the treatment. If the percentage is smaller than 10%, it may indicate very severe toxicity; if the percentage is between 10% and 50%, it may indicate severe toxicity; if the percentage is between 50% and […], it may indicate mild toxicity; and if the percentage is larger than 90%, it may indicate rare or no toxicity. There are few preclinical methods for evaluating in vivo skin toxicity prior to clinical trial. The last two decades have seen the advent of in vitro human skin models, which have a proven record of accurately predicting clinical skin toxicity. FIG. 3A illustrates an example reconstructed human epidermis (RHE) model 300. These reconstituted human epidermal (RHE) models 300 may be metabolically and mitotically active 3D models of the normal human epidermis derived from cultured human epidermal keratinocytes. The RHE models 300 may have in vivo-like morphology and growth characteristics. […] The RHE models 300 may have keratinocytes only but no dermis, vasculature or immune/inflammatory cells.
FIG. 5A illustrates an example annotation of an RHE sample 310 with tissue sections. […] After the epidermal area is identified, the thickness of the viable epidermal area may be computed, e.g., based on distance transformation. In particular embodiments, the median thickness value may be used to represent the thickness of the viable epidermal area for each tissue section and the average thickness of the two tissue sections of a RHE sample 310 may be used to represent a single RHE sample 310. FIG. 5B illustrates an example extraction of thickness of a tissue sample. […] The digital pathology image processing system 110 may then quantify, based on the centerline, a thickness value for each of the plurality of locations. […] This way, the thickness of each tissue sample (e.g., RHE sample 310) may be normalized. FIG. 5C illustrates an example normalization of the tissue thickness. […] The left subfigure of FIG. 5C may show the originally measured thickness whereas the right subfigure of FIG. 5C may show the normalized thickness. Although this disclosure describes calculating normalized thickness in a particular manner, this disclosure contemplates calculating normalized thickness in any suitable manner. As an example and not by way of limitation, the digital pathology image processing system may determine a plurality of stepwise thickness measurements along an axis determined based on the epidermal layer, calculate a length and area of the epidermal layer with the thickness being derived from them, and then calculate the normalized thickness accordingly.
The embodiments disclosed herein further conduct a retrospective study based on RHE samples 310 from five studies that evaluated the skin toxicity of various compounds. The 3D in vitro human skin model was used for all studies. A total of 31 compounds with known or suspected clinical skin toxicity were evaluated for skin toxicity, some of which were evaluated in more than one study. Upon receipt of the RHE samples 310, each tissue culture insert was transferred to a well of 6-well plate containing 1 mL/well of pre-warmed maintenance media and kept dry on top to maintain an air-liquid interface. The RHE samples 310 were equilibrated at 37° C., 5% CO2 overnight, and fed with fresh media the next day. One day later, the RHE samples 310 were subjected to 4-day daily basolateral treatment with test articles at various concentrations, or vehicle control DMSO at 0.5%.

For data set [2] the following is noted: cited from earlier work.
The next data set has as its system skin. The note with it: cited from earlier work; for Skin tox.: clinical skin toxicity (rash, pruritus, acne, dermatitis, alopecia, dry skin) in labels or publications; for clinical toxicity: clinical skin toxicity.
The mark [3] stands for this setting: clinical exposure, maximal free concentrations measured in plasma.
Where [4] appears, read: mean, normalized to control, test concentration 2 uM.
The mark [5] stands for this setting: mean, normalized to control, test concentration 10 uM.
Where [6] appears, read: marked *: plasma protein binding unavailable, total concentration used.

With `CN(C)C/C=C/C(=O)Nc1cc2c(Nc3ccc(F)c(Cl)c3)ncnc2cc1O[C@H]1CCOC1` [Afatinib], in data set [1], the “change in epidermal thickness versus control (FIG. 11A)” value (“change” for short) was “significant decrease in epidermal thickness”. Moreover, the Normalized thickness is listed as 0.70 in data set [1] (human, 4 days, 1 uM) and 0.77 in data set [1] (human, 4 days, 10 uM). For the same molecule, in data set [2] (setting [3]), the Cmax_free was 0.0042 µM. Further, the Skin tox. entry with skin was “Yes”. The clinical toxicity result in the data set with skin is “demonstrated clinical toxicity”.
For `Cc1nc(NC(=O)N2CCC[C@H]2C(N)=O)sc1-c1ccnc(C(C)(C)C(F)(F)F)c1` [Alpelisib], the “change” value in data set [1] is reported as “significant decrease in epidermal thickness”. The molecule further registered a Normalized thickness in data set [1] (human, 4 days, 0.32 uM) of 0.75. The same molecule yielded a Normalized thickness in data set [1] (human, 4 days, 3.2 uM) of 0.45. Besides, the Cmax_free in data set [2] (setting [3]) is 0.61 µM. For the same molecule, in the data set on skin, the Skin tox. entry was “Yes” and the clinical toxicity result is on record as “demonstrated clinical toxicity”.
For the molecule `O=C(c1ccc(F)c(F)c1Nc1ccc(I)cc1F)N1CC(O)([C@@H]2CCCCN2)C1` [Cobimetinib], the “change” value in data set [1] is reported as “significant decrease in epidermal thickness”. Further, the Normalized thickness in data set [1] (human, 4 days, 0.02 uM) worked out at 0.91; in data set [1] (human, 4 days, 1 uM), 0.71. For the same molecule, the Cmax_free in data set [2] (setting [3]) was 0.03 µM. For the same molecule, the Skin tox. result in the data set with skin is given as “Yes”. Besides, in the data set with skin, the clinical toxicity entry was “demonstrated clinical toxicity”.
Consider `C#Cc1cccc(Nc2ncnc3cc(OCCOC)c(OCCOC)cc23)c1` [Erlotinib], for which the “change” value in data set [1] is listed as “significant decrease in epidermal thickness”. The Normalized thickness is 0.53 in data set [1] (human, 4 days, 1 uM); 0.75 in data set [1] (human, 4 days, 2 uM); 0.41 in data set [1] (human, 4 days, 10 uM). The Cmax_free in data set [2] (setting [3]) is 0.38 µM. For the same molecule, in the data set with skin, the Skin tox. entry was “Yes”. For the same molecule, the clinical toxicity entry in the data set on skin is “demonstrated clinical toxicity”.
Take `CC[C@H](Nc1ncnc2[nH]cnc12)c1nc2cccc(F)c2c(=O)n1-c1ccccc1` [Idelalisib]: the Normalized thickness was 0.95 in data set [1] (human, 4 days, 0.08 uM) and 1.00 in data set [1] (human, 4 days, 0.8 uM). Moreover, the Cmax_free in data set [2] (setting [3]) is 0.84 µM. Besides, the Skin tox. entry with skin is recorded as “Yes”.
Consider `Cn1cc(-c2ccc3nnc(C(F)(F)c4ccc5ncccc5c4)n3n2)cn1` [Jnj-38877605], for which the results for the Normalized thickness in data set [1] (setting [4]) and in data set [1] (setting [5]) were 0.82 and 0.91, respectively. In addition, the Cmax_free in data set [2] (setting [6]) is recorded as 0.13* uM. In addition, the Skin tox. result in the data set on skin is “No”.
Take `CS(=O)(=O)CCNCc1ccc(-c2ccc3ncnc(Nc4ccc(OCc5cccc(F)c5)c(Cl)c4)c3c2)o1` [Lapatinib]: the “change” value in data set [1] is given as “significant decrease in epidermal thickness”. Moreover, the Normalized thickness in data set [1] (human, 4 days, 1 uM) is 0.66. For the same molecule, the Normalized thickness in data set [1] (human, 4 days, 10 uM) was 0.47. Besides, the Cmax_free in data set [2] (setting [3]) is 0.000039 µM. Besides, in the data set with skin, the Skin tox. entry is recorded as “Yes” and the clinical toxicity entry is reported as “demonstrated clinical toxicity”.
Regarding `C=CC(=O)Nc1cc(Nc2nccc(-c3cn(C)c4ccccc34)n2)c(OC)cc1N(C)CCN(C)C` [Osimertinib], the “change” value in data set [1] is “significant decrease in epidermal thickness”. The Normalized thickness in data set [1] (human, 4 days, 0.3 uM) was determined as 0.85; in data set [1] (human, 4 days, 1 uM), 0.61; in data set [1] (human, 4 days, 3 uM) it was 0.45; in data set [1] (human, 4 days, 10 uM) it was 0.76. In data set [1] (human, 4 days, 300 nM), this molecule gave a median normalized thickness of 0.80. Also, the Cmax_free in data set [2] (setting [3]) is 0.025 µM. Also, the Skin tox. result in the data set with skin is “Yes”. Also, the clinical toxicity result with skin was “demonstrated clinical toxicity”.
For the molecule `CC(=O)c1c(C)c2cnc(Nc3ccc(N4CCNCC4)cn3)nc2n(C2CCCC2)c1=O` [Palbociclib], the Normalized thickness in data set [1] (human, 4 days, 0.023 uM) worked out at 1.02; in data set [1] (human, 4 days, 0.23 uM), 0.99. For the same molecule, the Skin tox. result with skin was “Yes”.
On to `OCCn1cc(-c2cnc3nnn(Cc4ccc5ncccc5c4)c3n2)cn1` [Pf-04217903], for which, in data set [1] (10 µM), the “normalized epidermal thickness decrease” value is reported as “greater than 20%”. The values for the Normalized thickness in data set [1] (setting [4]) and in data set [1] (setting [5]) were 0.91 and 0.72, respectively. In data set [1] (normalized viable epidermal thickness, multiple comparison, result in words), the “change” value is “significant decrease in epidermal thickness”. Also, in data set [2] (setting [3]), the Cmax_free was 0.015 µM. Also, the Skin tox. entry with skin was “No”. Also, the clinical toxicity result in the data set with skin is “did not exhibit clinical toxicity”.
Turning to `CS(=O)(=O)N1CCN(Cc2cc3nc(-c4cccc5[nH]ncc45)nc(N4CCOCC4)c3s2)CC1` [Pictilisib], the “change” value in data set [1] was “significant decrease in epidermal thickness”. In addition, the Normalized thickness is 0.94 in data set [1] (human, 4 days, 0.02 uM) and 0.46 in data set [1] (human, 4 days, 1 uM).
Regarding `C=CC(=O)N1CCC(Oc2cc3c(Nc4ccc(Cl)c(Cl)c4F)ncnc3cc2OC)CC1` [Poziotinib], the “change” value in data set [1] is recorded as “significant decrease in epidermal thickness”. Further, the Normalized thickness in data set [1] (human, 4 days, 0.3 uM) is recorded as 0.72; in data set [1] (human, 4 days, 1 uM) it was 0.65; in data set [1] (human, 4 days, 10 uM), 0.73. In addition, the Cmax_free in data set [2] (setting [3]) is 0.0021 µM. The Skin tox. entry in the data set with skin was “Yes”. Moreover, the clinical toxicity result with skin is listed as “demonstrated clinical toxicity”.
`N#CC[C@H](C1CCCC1)n1cc(-c2ncnc3[nH]ccc23)cn1` [Ruxolitinib]: the “change” value in data set [1] is listed as “significant decrease in epidermal thickness”. Also, the Normalized thickness in data set [1] (human, 4 days, 2 uM) is 0.85; in data set [1] (human, 4 days, 10 uM), 0.81. Besides, the Cmax_free in data set [2] (setting [3]) was 0.033 µM. Further, the Skin tox. result with skin is on record as “No”. Moreover, the clinical toxicity result in the data set with skin is given as “did not exhibit clinical toxicity”.
Turning to `CNC(=O)c1cc(Oc2ccc(NC(=O)Nc3ccc(Cl)c(C(F)(F)F)c3)cc2)ccn1` [Sorafenib], the “change” value in data set [1] is on record as “failed to cause any meaningful change in epidermal thickness”. The Normalized thickness in data set [1] (human, 4 days, 0.5 uM) came out at 0.87; in data set [1] (human, 4 days, 5 uM), 0.85. In addition, the Cmax_free in data set [2] (setting [3]) is 0.07 µM. In addition, in the data set on skin, the Skin tox. result was “Yes”.
As to `C[C@@H]1CCN(C(=O)CC#N)C[C@@H]1N(C)c1ncnc2[nH]ccc12` [Tofacitinib], the “change” value in data set [1] is “significant decrease in epidermal thickness”. For the same molecule, the Normalized thickness is reported as 0.84 in data set [1] (human, 4 days, 2 uM) and 0.82 in data set [1] (human, 4 days, 10 uM). Besides, in the data set with skin, the Skin tox. result is listed as “No”. Besides, the clinical toxicity result with skin was “did not exhibit clinical toxicity”.
On to `COC(=O)Nc1nc2cc(C3(O)c4ccccc4C(=O)N3c3cc(Cl)ccc3C)ccc2[nH]1` (centres unmarked) [XL281], for which the “change” value in data set [1] is “increase in epidermal thickness”. Besides, the Normalized thickness in data set [1] (human, 4 days, 0.5 uM) is listed as 1.14; in data set [1] (human, 4 days, 5 uM), 0.89. The Cmax_free in data set [2] (setting [6]) is recorded as 4.5* uM. Further, in the data set with skin, the Skin tox. entry was “No”.
